What is called pIC50 is the negative decadic logarithm of the IC50, by convention in mol/L.

Structures are written as SMILES. pIC50: −log10 of the molar value. Results filed as inconclusive are left out.

The test has as its target Cathepsin B (Homo sapiens) (UniProt P07858). The experiment in a line: potency determination for CTSB inhibitors, concentration-dependent titration, enzymatic biochemical, actives identified in pooled-sample high-throughput screen (AID 830). To be noted: purified cathepsin B enzyme activity, signal read-out.
In the case of `O=S(=O)(/N=S1/CC=CCN1S(=O)(=O)c1ccccc1)c1ccccc1` (stereo unspecified), the pIC50 was 5.03.
With `Cc1ccc(S(=O)(=O)n2nc(OC(=O)c3ccco3)cc2N)cc1`, the negative-log IC50 (pIC50) was 5.76.
With `Nc1cc(OC(=O)c2ccco2)nn1S(=O)(=O)c1ccc(F)cc1` the figure was 5.90; with `Cc1ccc(S(=O)(=O)n2nc(OC(=O)c3cccs3)cc2N)cc1`, 5.70.
Regarding `Nc1cc(OC(=O)c2cccs2)nn1S(=O)(=O)c1ccccc1`, the pIC50 was 6.61.
`Nc1nc2n(n1)C1(CCCCC1)C1=C(CCCC1)N2`: the negative-log IC50 (pIC50) is 4.89.

Source of the values: PubChem BioAssay AID830 (PCMD, 2007).
